Converted amounts (≈) assume the structure as drawn.
How the values were obtained:
physchem [1] = conditions: citric acid-Na2HPO4 buffer, pH 4.12
Description: Solubility in citric acid-Na2HPO4 buffer at pH 4.12 in presence of 0.0755 mol/l hydroxypropyl-beta-cyclodextrin

physchem [2] = conditions: water
Description: Solubility in water in presence of 0.0302 mol/l hydroxypropyl-beta-cyclodextrin

physchem [3] = conditions: NaOH-NaHCO3 buffer, pH 9.57
Description: Solubility in NaOH-NaHCO3 buffer at pH 9.57 in presence of 0.0604 mol/l hydroxypropyl-beta-cyclodextrin

physchem [4] = conditions: NaOH-NaHCO3 buffer, pH 9.57; remark: listed apart in the source
Description: Solubility in NaOH-NaHCO3 buffer at pH 9.57 in presence of 0.1660 mol/l hydroxypropyl-beta-cyclodextrin

physchem [5] = conditions: water; remark: listed apart in the source
Description: Solubility in water in presence of 0.334 mol/l triethanolamine

physchem [6] = conditions: NaOH-NaHCO3 buffer, pH 9.57; remark: listed apart in the source
Description: Solubility in NaOH-NaHCO3 buffer at pH 9.57 in presence of 0.1132 mol/l hydroxypropyl-beta-cyclodextrin

physchem [7] = conditions: NaOH-NaHCO3 buffer, pH 9.57; remark: listed apart in the source
Description: Solubility in NaOH-NaHCO3 buffer at pH 9.57

physchem [8] = conditions: water; remark: listed apart in the source
physchem [9] = conditions: citric acid-Na2HPO4 buffer, pH 4.12; remark: listed apart in the source
Description: Solubility in citric acid-Na2HPO4 buffer at pH 4.12 in presence of 0.1660mol/l hydroxypropyl-beta-cyclodextrin

physchem [10] = conditions: citric acid-Na2HPO4 buffer, pH 4.12; remark: listed apart in the source
Description: Solubility in citric acid-Na2HPO4 buffer at pH 4.12 in presence of 0.0226 mol/l hydroxypropyl-beta-cyclodextrin

[11] = Permeability across rabbit cornea; format: ADME, tissue-based, Oryctolagus cuniculus
physchem [12] = conditions: water; remark: listed apart in the source
Description: Solubility in water in presence of 0.0151 mol/l hydroxypropyl-beta-cyclodextrin

physchem [13] = conditions: NaOH-NaHCO3 buffer, pH 9.57; remark: listed apart in the source
Description: Solubility in NaOH-NaHCO3 buffer at pH 9.57 in presence of 0.0302 mol/l hydroxypropyl-beta-cyclodextrin

physchem [14] = conditions: citric acid-Na2HPO4 buffer, pH 4.12; remark: listed apart in the source
Description: Solubility in citric acid-Na2HPO4 buffer at pH 4.12 in presence of 0.2 M hydroxypropyl-beta-cyclodextrin

physchem [15] = conditions: citric acid-Na2HPO4 buffer, pH 4.12; remark: listed apart in the source
Description: Solubility in citric acid-Na2HPO4 buffer at pH 4.12 in presence of 0.0302 mol/l hydroxypropyl-beta-cyclodextrin

physchem [16] = conditions: NaOH-NaHCO3 buffer, pH 9.57; remark: listed apart in the source
Description: Solubility in NaOH-NaHCO3 buffer at pH 9.57 in presence of 0.2 M hydroxypropyl-beta-cyclodextrin

physchem [17] = conditions: water; remark: listed apart in the source
Description: Solubility in water in presence of 0.0755 mol/l hydroxypropyl-beta-cyclodextrin

physchem [18] = conditions: citric acid-Na2HPO4 buffer, pH 4.12; remark: listed apart in the source
Description: Solubility in citric acid-Na2HPO4 buffer at pH 4.12 in presence of 0.1132 mol/l hydroxypropyl-beta-cyclodextrin

physchem [19] = conditions: NaOH-NaHCO3 buffer, pH 9.57; remark: listed apart in the source
Description: Solubility in NaOH-NaHCO3 buffer at pH 9.57 in presence of 0.0755 mol/l hydroxypropyl-beta-cyclodextrin

physchem [20] = conditions: citric acid-Na2HPO4 buffer, pH 4.12; remark: listed apart in the source
Description: Solubility in citric acid-Na2HPO4 buffer at pH 4.12

physchem [21] = conditions: citric acid-Na2HPO4 buffer, pH 4.12; remark: listed apart in the source
Description: Solubility in citric acid-Na2HPO4 buffer at pH 4.12 in presence of 0.0604 mol/l hydroxypropyl-beta-cyclodextrin

physchem [22] = conditions: NaOH-NaHCO3 buffer, pH 9.57; remark: listed apart in the source
Description: Solubility in NaOH-NaHCO3 buffer at pH 9.57 in presence of 0.0226 mol/l hydroxypropyl-beta-cyclodextrin

physchem [23] = conditions: water; remark: listed apart in the source
Description: Solubility in water in presence of 0.0604 mol/l hydroxypropyl-beta-cyclodextrin

physchem [24] = conditions: water; remark: listed apart in the source
Description: Solubility in water in presence of 0.1132 mol/l hydroxypropyl-beta-cyclodextrin

physchem [25] = conditions: water; remark: listed apart in the source
Description: Solubility in water in presence of 0.1001 mol/l triethanolamine

solubility (physchem [1]): 2960 µg/mL (≈ 13.3 mM) | solubility (physchem [2]): 2440 µg/mL (≈ 11 mM) | solubility (physchem [3]): 4770 µg/mL (≈ 21.5 mM) | solubility (physchem [4]): 7020 µg/mL (≈ 31.6 mM) | solubility (physchem [5]): 3860 µg/mL (≈ 17.4 mM) | solubility (physchem [6]): 5930 µg/mL (≈ 26.7 mM) | solubility (physchem [7]): 2770 µg/mL (≈ 12.5 mM) | solubility (physchem [8]): 810 µg/mL (≈ 3.64 mM) | solubility (physchem [9]): 4970 µg/mL (≈ 22.4 mM) | solubility (physchem [10]): 1660 µg/mL (≈ 7.47 mM) | permeability [11]: 4.1 ×10⁻⁶ cm/s | solubility (physchem [12]): 1880 µg/mL (≈ 8.46 mM) | solubility (physchem [13]): 3620 µg/mL (≈ 16.3 mM) | solubility (physchem [14]): 4970 µg/mL (≈ 22.4 mM) | solubility (physchem [15]): 1830 µg/mL (≈ 8.23 mM) | solubility (physchem [16]): 7020 µg/mL (≈ 31.6 mM) | solubility (physchem [17]): 5530 µg/mL (≈ 24.9 mM) | solubility (physchem [18]): 3780 µg/mL (≈ 17 mM) | solubility (physchem [19]): 5290 µg/mL (≈ 23.8 mM) | solubility (physchem [20]): 850 µg/mL (≈ 3.82 mM) | solubility (physchem [21]): 2280 µg/mL (≈ 10.3 mM) | solubility (physchem [22]): 3210 µg/mL (≈ 14.4 mM) | solubility (physchem [23]): 4510 µg/mL (≈ 20.3 mM) | solubility (physchem [24]): 7030 µg/mL (≈ 31.6 mM) | solubility (physchem [25]): 5910 µg/mL (≈ 26.6 mM)
SMILES: CC(=O)Nc1nnc(S(N)(=O)=O)s1 [ACETAZOLAMIDE]
